Laboratory results taken from the supplement of paper PMC10307832.

What was measured:
Test in all cases: relative viability (nuclei count vs DMSO), 5 days (fraction); higher = more cells survive
Bortezomib = compound: CC(C)C[C@H](NC(=O)[C@H](Cc1ccccc1)NC(=O)c1cnccn1)B(O)O [Bortezomib]
Method in brief: (§1)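 Lung cancer cell lines were seeded into 1536-well plates, kept overnight at 37 °C and pinned with five library-drug doses (not always all listed) spaced by √10. After 5 days, nuclei were Hoechst-stained, imaged at 4× and counted with MetaXpress. Viability is treated-well nuclei over vehicle-well nuclei, taken as a median across plates. Plates needed control CV below 25% and at least one doubling.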

[1] = compound: CC1=CC(=NN1)NC2=CC(=NC(=N2)/C=C/C3=CC=CC=C3)N4CCN(CC4)C
Method in brief: as §1

Obatoclax = compound: COC1=CC(c2cc3ccccc3[nH]2)=N/C1=C\c1[nH]c(C)cc1C [Obatoclax]
Method in brief: as §1

| Cell Line | relative viability (Bortezomib; 0.0002 µM) | relative viability (Bortezomib; 0.000632 µM) | relative viability (Bortezomib; 0.002 µM) | relative viability (Bortezomib; 0.002 µM, anchor plate) | relative viability (Bortezomib; 0.006325 µM) | relative viability (Bortezomib; 0.02 µM) | relative viability ([1]; 0.08 µM) | relative viability ([1]; 0.253 µM) | relative viability ([1]; 0.8 µM) | relative viability ([1]; 2.53 µM) | relative viability ([1]; 8 µM) | relative viability (Obatoclax; 0.01 µM) | relative viability (Obatoclax; 0.03162 µM) | relative viability (Obatoclax; 0.1 µM) | relative viability (Obatoclax; 0.3162 µM) | relative viability (Obatoclax; 1 µM) |
| --- | --- | --- | --- | --- | --- | --- | --- | --- | --- | --- | --- | --- | --- | --- | --- | --- |
| EKVX | 0.934 | 0.96 | 0.987 | 1.04 | 0.669 | 0.124 | 0.9 | 1.05 | 1.09 | 0.844 | 0.267 | 1.07 | 0.891 | 0.905 | 0.982 | 0.918 |
| EMC-BAC-2 | 0.938 | 0.961 | 0.999 | 1.11 | 0.543 | 0.2 | 0.939 | 1.03 | 0.886 | 0.477 | 0.246 | 0.973 | 0.957 | 0.74 | 0.96 | 0.819 |
| EPLC-272H | 0.8 | 0.652 | 0.871 | 0.902 | 0.66 | 0.105 | 0.819 | 1.09 | 0.908 | 0.404 | 0.35 | 0.99 | 0.924 | 0.96 | 0.675 | 0.339 |
| H3255 | 0.928 | 1.06 | 0.951 | 0.816 | 0.274 | 0.291 | 0.966 | 1.05 | 1.04 | 0.931 | 0.473 | 0.931 | 0.926 | 0.896 | 1 | 0.959 |
| HARA | 0.937 | 0.888 | 0.902 | 1.11 | 0.374 | 0.0946 | 0.908 | 0.951 | 1.25 | 0.339 | 0.217 | 0.947 | 0.956 | 1.01 | 0.908 | 0.827 |
| HCC-15 | 0.909 | 1.07 | 0.996 | 1.01 | 0.549 | 0.0945 | 1.01 | 1 | 1.01 | 0.524 | 0.1 | 0.975 | 0.948 | 0.842 | 1.05 | 0.816 |
| HCC-44 | 0.95 | 0.968 | 0.987 | 0.895 | 0.869 | 0.173 | 0.986 | 1.01 | 0.933 | 0.86 | 0.18 | 1.01 | 0.953 | 0.827 | 0.929 | 0.755 |
| HCC-78 | 0.874 | 0.901 | 0.815 | 0.52 | 0.512 | 0.329 | 0.904 | 1.14 | 1.08 | 0.701 | 0.27 | 1.09 | 0.866 | 0.891 | 0.771 | 1.02 |
| HCC-366 | 1.03 | 0.974 | 1.05 | 1.02 | 1.01 | 0.045 | 0.954 | 1.03 | 0.985 | 0.452 | 0.0338 | 1 | 1.05 | 1.02 | 1.01 | 0.744 |
| HCC-827 | 1.06 | 1.04 | 1.05 | 1.05 | 0.738 | 0.165 | 1.02 | 1.06 | 1.06 | 0.89 | 0.443 | 0.97 | 0.957 | 0.946 | 1.05 | 0.979 |
